Source: patent publication US7282507B2, “Indole derivatives as selective androgen receptor modulators (SARMS)” (Janssen Pharmaceutica N.V., priority 2004, dated 2007)
Several values for one entry are separate records, joined by “and”; a condition that tells them apart may be missing. Equal values may be shown once.

Experiments:
[1] = biological target: T1, androgen receptor (AdEasy+rAR, L929 cells) (Rattus norvegicus, UniProt P15207); assay: L929 Androgen Receptor Functional Assay, Adenovirus Transduction; type: cell-based; conditions: for % Activity, L929 androgen receptor functional assay / EC50: agonist testing; for % Inhibition, L929 androgen receptor functional assay: antagonist testing with R1881, 3000 nM; for inhibition at 3 µM: L929, antagonist testing with R1881, 3000 nM; for IC50: antagonist testing with R1881
T1 construct: expressed in transfected cells; host or cells: L929 cells transduced with adenovirus AdEasy+rAR
T1 sequence (P15207 1-902): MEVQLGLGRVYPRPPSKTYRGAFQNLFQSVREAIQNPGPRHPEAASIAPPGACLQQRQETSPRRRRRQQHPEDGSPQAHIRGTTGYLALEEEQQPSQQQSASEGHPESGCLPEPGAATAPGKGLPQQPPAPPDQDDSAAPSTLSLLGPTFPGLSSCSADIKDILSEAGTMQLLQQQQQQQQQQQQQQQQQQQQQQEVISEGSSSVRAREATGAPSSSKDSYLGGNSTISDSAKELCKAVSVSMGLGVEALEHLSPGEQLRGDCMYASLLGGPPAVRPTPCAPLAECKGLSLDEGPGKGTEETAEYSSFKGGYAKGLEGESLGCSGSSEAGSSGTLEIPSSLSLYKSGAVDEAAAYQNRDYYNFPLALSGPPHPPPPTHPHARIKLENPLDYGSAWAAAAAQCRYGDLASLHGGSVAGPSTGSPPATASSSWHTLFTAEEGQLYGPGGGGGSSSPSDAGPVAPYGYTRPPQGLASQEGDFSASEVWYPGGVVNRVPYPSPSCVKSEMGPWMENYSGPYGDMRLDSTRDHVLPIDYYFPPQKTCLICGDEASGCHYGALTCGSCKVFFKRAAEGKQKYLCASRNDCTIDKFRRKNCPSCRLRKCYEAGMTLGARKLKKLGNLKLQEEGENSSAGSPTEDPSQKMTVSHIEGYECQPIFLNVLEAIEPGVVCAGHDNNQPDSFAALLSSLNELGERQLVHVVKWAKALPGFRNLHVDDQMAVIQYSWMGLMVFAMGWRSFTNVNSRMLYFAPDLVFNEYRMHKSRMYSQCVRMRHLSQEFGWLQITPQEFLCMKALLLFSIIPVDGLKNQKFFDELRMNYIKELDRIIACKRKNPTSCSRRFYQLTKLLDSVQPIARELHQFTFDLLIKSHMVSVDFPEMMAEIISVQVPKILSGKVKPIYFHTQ
In short: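 L929 cells in phenol red-free, charcoal-stripped serum medium transduced with AdEasy+rAR (moi 1:500) and exposed 48 h at 37 °C to compound alone (agonist mode) or with R1881 (antagonist mode; 2.5 nM as the 2.5× dilution).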

[2] = biological target: T2, androgen receptor LBD (Panvera) (Rattus norvegicus, UniProt P15207); assay: Androgen Receptor Filtration Binding Assay (PANVERA); conditions: [3H] R1881 tracer 0.5 nM; read-out: IC50 (nM), Androgen Receptor Binding (Panvera)
T2 construct: 5 pmol androgen receptor LBD (Panvera); purchased Panvera
T2 sequence (P15207 651-882 limits assumed): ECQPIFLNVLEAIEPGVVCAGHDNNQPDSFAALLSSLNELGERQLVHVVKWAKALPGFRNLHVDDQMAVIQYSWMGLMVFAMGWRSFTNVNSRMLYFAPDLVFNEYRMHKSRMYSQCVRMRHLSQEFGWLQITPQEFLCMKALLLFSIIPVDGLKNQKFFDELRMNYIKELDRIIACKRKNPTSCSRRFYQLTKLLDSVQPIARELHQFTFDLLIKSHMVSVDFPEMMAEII

| Structure (SMILES) | % Activity, L929 androgen receptor functional assay ([1]; 3000 nM) | inhibition at 3 µM [1] | other results |
| --- | --- | --- | --- |
| CC(O)(C[S+]([O-])Cc1ccccc1)c1cc2cc([N+](=O)[O-])c(C(F)(F)F)cc2[nH]1 (mixture of isomers) [Compound 161] | 2% | – | – |
| COc1ccc(S(=O)(=O)CC(C)(O)c2cc3cc(Cl)c(C(F)(F)F)cc3[nH]2)cc1 (racemic) [Compound 129] | −5% | – | % Inhibition, L929 androgen receptor functional assay [1]: −8% |
| COc1ccc(SCC(C)(O)c2cc3cc(Cl)c(C(F)(F)F)cc3n2S(C)(=O)=O)cc1 (racemic) [Compound 130] | −5% | – | – |
| CCSCC(C)(O)c1cc2cc([N+](=O)[O-])c(C(F)(F)F)cc2[nH]1 (racemic) [Compound 142] | 0% | 78% | – |
| CCSCC(C)(O)c1cc2cc([N+](=O)[O-])c(C(F)(F)F)cc2n1C (racemic) [Compound 165] | 1% | 100% | – |
| CSCC(C)(O)c1cc2cc([N+](=O)[O-])c(C(F)(F)F)cc2[nH]1 (single isomer, unassigned) [Compound 144] | – | 82% | % Activity, L929 androgen receptor functional assay ([1]; 3000 nM, 3 µM): 0% |
| CSCC(C)(O)c1cc2cc([N+](=O)[O-])c(C(F)(F)F)cc2[nH]1 (single isomer, unassigned) [Compound 145] | – | – | % Activity, L929 androgen receptor functional assay ([1]; 3000 nM, 3 µM): 1%; % Inhibition, L929 androgen receptor functional assay ([1]; 3 µM): 94% |
| CCSCC(C)(O)c1cc2cc([N+](=O)[O-])c(C(F)(F)F)cc2[nH]1 (single isomer, unassigned) [Compound 149] | 2% | 77% | – |
| CCSCC(C)(O)c1cc2cc([N+](=O)[O-])c(C(F)(F)F)cc2[nH]1 (single isomer, unassigned) [Compound 150] | – | – | EC50 [1]: > 8000 nM; % Activity, L929 androgen receptor functional assay ([1]; @ 8000 nM): 0 @ 8000 nM %; IC50 [1]: 303 nM |
| CC[S+]([O-])C[C@](C)(O)c1cc2cc([N+](=O)[O-])c(C(F)(F)F)cc2[nH]1 (stereo in doubt) [Compound 155, 1-Ethanesulfinyl-2-(5-nitro-6-trifluoromethyl-1H-indol-2-yl)-propan-2-ol] | 2% | -2% | – |
| CSCCC(C)(O)c1cc2cc([N+](=O)[O-])c(C(F)(F)F)cc2[nH]1 (stereo not shown) [Compound 47] | 2% | 75% | – |
| CC(O)(CCS(C)(=O)=O)c1cc2cc([N+](=O)[O-])c(C(F)(F)F)cc2[nH]1 (stereo not shown) [Compound 49] | 2% | 8% | – |
| CC(O)(CSc1ccc(N)cc1)c1cc2cc(Cl)c(C(F)(F)F)cc2[nH]1 (stereo not shown) [Compound 104] | 9% | 18% | IC50 [2]: 930 nM |
| CC(O)(CS(=O)(=O)c1ccc(N)cc1)c1cc2cc(Cl)c(C(F)(F)F)cc2[nH]1 (stereo not shown) [Compound 118] | – | 63% | EC50 [1]: > 8000 nM; % Activity, L929 androgen receptor functional assay ([1]; @ 8000 nM): −2 @ 8000 nM %; IC50 [1]: 3070 nM |
| CC(O)(CSc1ccc(O)cc1)c1cc2cc(Cl)c(C(F)(F)F)cc2[nH]1 (stereo not shown) [Compound 120] | −5% | 44% | – |
| CC(O)(CS(=O)(=O)c1ccc(O)cc1)c1cc2cc(Cl)c(C(F)(F)F)cc2[nH]1 (stereo not shown) [Compound 121] | −4% | 54% | – |
| CC(O)(CSc1ccc([N+](=O)[O-])cc1)c1cc2cc(Cl)c(C(F)(F)F)cc2[nH]1 (stereo not shown) [Compound 122] | 10% | 35% | – |
| COc1ccc(SCC(C)(O)c2cc3cc(Cl)c(C(F)(F)F)cc3[nH]2)cc1 (stereo not shown) [Compound 131] | −5% | -4% | – |
| CSCC(C)(O)c1cc2cc(Cl)c(C(F)(F)F)cc2[nH]1 (stereo not shown) [Compound 135] | 0% | 40% | – |

| Structure (SMILES) | % Activity, L929 androgen receptor functional assay ([1]; 3000 nM) | inhibition at 3 µM [1] | other results |
| --- | --- | --- | --- |
| CSCC(C)(O)c1cc2cc(C#N)c(C(F)(F)F)cc2[nH]1 (stereo not shown) [Compound 136] | 0% | 75% | – |
| CC(O)(CS(C)(=O)=O)c1cc2cc(Cl)c(C(F)(F)F)cc2[nH]1 (stereo not shown) [Compound 138] | 0% | 19% | – |
| CC(O)(CS(C)(=O)=O)c1cc2cc([N+](=O)[O-])c(C(F)(F)F)cc2[nH]1 (stereo not shown) [Compound 140] | 0% | – | % Inhibition, L929 androgen receptor functional assay ([1]; 3 µM): 78% |
| CCSCC(C)(O)c1cc2cc([N+](=O)[O-])c(C(F)(F)F)cc2n1S(C)(=O)=O (stereo not shown) [Compound 141] | 0% | 42% | – |
| CCS(=O)(=O)CC(C)(O)c1cc2cc([N+](=O)[O-])c(C(F)(F)F)cc2[nH]1 (stereo not shown) [Compound 143] | 0% | 67% | – |
| CC(O)(CS(C)(=O)=O)c1cc2cc([N+](=O)[O-])c(C(F)(F)F)cc2[nH]1 (stereo not shown) [Compound 147] | 0% | – | % Inhibition, L929 androgen receptor functional assay ([1]; 3 µM): 43% |
| CC(O)(CS(C)(=O)=O)c1cc2cc([N+](=O)[O-])c(C(F)(F)F)cc2[nH]1 (stereo not shown) [Compound 148] | 0% | – | % Inhibition, L929 androgen receptor functional assay ([1]; 3 µM): 77% |
| CCS(=O)(=O)CC(C)(O)c1cc2cc([N+](=O)[O-])c(C(F)(F)F)cc2[nH]1 (stereo not shown) [Compound 151] | – | – | EC50 [1]: > 8000 nM; % Activity, L929 androgen receptor functional assay ([1]; @ 8000 nM): −1 @ 8000 nM %; IC50 [1]: 533 nM |
| CCS(=O)(=O)C[C@](C)(O)c1cc2cc([N+](=O)[O-])c(C(F)(F)F)cc2[nH]1 [Compound 156, 1-Ethanesulfonyl-2-(5-nitro-6-trifluoromethyl-1H-indol-2-yl)-propan-2-ol] | 2% | 35% | % Inhibition, L929 androgen receptor functional assay ([1]; 3 µM): 23% |
| CCSCC(O)c1cc2cc([N+](=O)[O-])c(C(F)(F)F)cc2[nH]1 (stereo not shown) [Compound 158] | – | 21% | % Activity, L929 androgen receptor functional assay ([1]; 3000 nM, 3 µM): 3% and 2%; % Inhibition, L929 androgen receptor functional assay ([1]; 3 µM): 29% |
| CC(O)(CSCc1ccccc1)c1cc2cc([N+](=O)[O-])c(C(F)(F)F)cc2[nH]1 (stereo not shown) [Compound 160] | 1% | 76% | – |
| CC(C)SCC(C)(O)c1cc2cc([N+](=O)[O-])c(C(F)(F)F)cc2[nH]1 (stereo not shown) [Compound 164] | 2% | 71% | – |
| CCCSCC(C)(O)c1cc2cc([N+](=O)[O-])c(C(F)(F)F)cc2[nH]1 (stereo not shown) [Compound 168] | 3% | 26% | – |
| CCSCC(O)(CC)c1cc2cc([N+](=O)[O-])c(C(F)(F)F)cc2[nH]1 (stereo not shown) [Compound 169] | 2% | 98% | – |
| CC(C)CSCC(C)(O)c1cc2cc([N+](=O)[O-])c(C(F)(F)F)cc2[nH]1 (stereo not shown) [Compound 170] | 2% | 67% | – |
| CC(O)(CSCC(F)(F)F)c1cc2cc([N+](=O)[O-])c(C(F)(F)F)cc2[nH]1 (stereo not shown) [Compound 171] | – | – | EC50 [1]: > 8000 nM; % Activity, L929 androgen receptor functional assay ([1]; 3000 nM, 3 µM): 11%; % Activity, L929 androgen receptor functional assay ([1]; @ 8000 nM): −1 @ 8000 nM %; IC50 [1]: 366 nM; % Inhibition, L929 androgen receptor functional assay ([1]; 3 µM): 101% and 70% |
| CC(O)(CSC1CCCC1)c1cc2cc([N+](=O)[O-])c(C(F)(F)F)cc2[nH]1 (stereo not shown) [Compound 173] | 2% | 40% | – |
| CCC(O)(CS(=O)(=O)CC)c1cc2cc([N+](=O)[O-])c(C(F)(F)F)cc2[nH]1 (stereo not shown) [Compound 176] | 3% | 81% | – |
